Reference: patent US20180235900A1, “SUBCUTANEOUS RESERVOIR DEVICE AND METHOD OF MANUFACTURE” (Research Triangle Institute, priority 2017, published 2018)
Counter-ions that a name gives are not always drawn.

Test: TAF stability in excipients (chromatographic purity by HPLC)
Assay type: physicochemical
Conditions: excess TAF dissolved in excipient at 37° C., quantified by HPLC
Experimental: Excipients on the FDA GRAS list of acceptable compounds were evaluated for TAF stability and short-duration TAF release. Devices containing TAF in combination with selected GRAS excipients were evaluated in prototype devices 60 days, presented in FIG. 8. […] Tocopherol was not chosen because of the high release rate of TAF near 3.5 mg/day.

Compound: CC(C)OC(=O)[C@H](C)N[P@](=O)(CO[C@H](C)Cn1cnc2c(N)ncnc21)Oc1ccccc1 [TAF std., Tenofovir Alafenamide Fumarate]
- Chromatographic Purity: 99.88%
